According to publication PMC2727956, “Production of the Novel Two-Peptide Lantibiotic Lichenicidin by Bacillus licheniformis DSM 13” (PLoS ONE, 2009):
Where no end group is shown, it is not given here.

Legend:
[1] = tested on: S. aureus ATCC 33592 (MRSA); test: Minimum inhibitory concentrations on agar plates (spotted serial dilutions); format: cell-based, Staphylococcus aureus; settings: S. aureus ATCC 33592 (MRSA) versus S. aureus SG511 (MSSA); serial dilutions in half-concentrated Müller-Hinton broth, 10 µl spotted on Müller Hinton agar lawn, overnight; lichenicidin as isopropanol wash extract
Experimental: (§1) For the comparison of the antibacterial efficacy of lichenicidin to other lantibiotics, Pep5 [52] and nisin [53] were purified as described previously, and mersacidin was obtained from Sanofi-Aventis (Frankfurt, Germany). Serial dilutions of the lantibiotics and the isopropanol wash extract were prepared in half-concentrated Müller-Hinton broth. Fresh colonies of all indicator organisms were used to prepare cell suspensions of about 5×10^6 colony forming units per ml which were employed to inoculate Müller Hinton agar plates. Ten µl of the lantibiotic solutions were spotted onto the indicator plates. The highest dilution yielding a clear inhibition zone on the lawn was detected by visual inspection after incubation overnight.

[2] = tested on: S. aureus LT440/09 (cMRSA); test: as above; format: cell-based, Staphylococcus aureus; settings: S. aureus LT440/09 (cMRSA) versus S. aureus SG511 (MSSA); serial dilutions in half-concentrated Müller-Hinton broth, 10 µl spotted on Müller Hinton agar lawn, overnight; lichenicidin as isopropanol wash extract
Experimental: as §1

| Substance | minimum inhibitory concentration on agar plates, fold higher than against S. aureus SG511 [1] [fold] | minimum inhibitory concentration on agar plates, fold higher than against S. aureus SG511 [2] [fold] |
| --- | --- | --- |
| mersacidin: lantibiotic obtained from Sanofi-Aventis (CTFTLPGGGGVCTLTSECIC; also: lantibiotic: thioether bridges, places not given here; UniProt P43683 49-68, looked up) | 4.8±1.6 | 4.7±1.6 |
| nisin | 1.83±0.41 | 2.67±1.03 |
